According to patent US10653779B2, “Formulations with reduced oxidation” (Genentech, Inc., priority 2013, dated 2020):

Tests used:
[1] = Photosensitivity screening: H2O2 formation by antioxidant candidates upon light exposure (Amplex Ultra Red Assay); format: physicochemical
Protocol: As a screening tool, antioxidant candidates were exposed to light for four hours at 250 W/m^2 and the resulting H2O2 formation was quantified by the Amplexassay. Specifically, antioxidants were prepared to 1 mM in 20 mM histidine acetate buffer at pH 5.5. The 1 mM antioxidant solutions were aliquoted into glass vials (2 mL/glass vial) and exposed to four hours of light at 250 W/m^2 in an Atlas SunTest CPS+ Xenon Test Instrument (Chicago, Ill.). Total UV dose was 90 watt-hours/square meter and total visible dose was 0.22 million lux hours over the 4-hour period. Control vials were wrapped in aluminum foil and treated similarly. The amount of hydrogen peroxide generated after exposure to light was measured using the Amplex® Ultra Red Assay (Invitrogen, Carlsbad, Calif.) following the manufacturer's recommended procedure. On addition of horseradish peroxidase (HRP), the dye reacted 1:1 stoichiometrically with H2O2, resulting in the production of fluorescent oxidation product resorufin. In this study, fluorescence readings were obtained using a Spectra Max M2 Micro-plate Reader (Molecular Devices, Sunnyvale, Calif.) with excitation and emission set at 560 nm and 590 nm, respectively. Final H2O2 concentrations were determined using a standard curve ranging from 0 μm to 20 μm. […]

[2] = Cyclic voltammetry (CV) screening of oxidation potentials; format: physicochemical; details: glassy carbon working electrode, 0.2 M lithium perchlorate
Protocol: The oxidation/reduction characteristics of the compounds were investigated. Several compounds, including L-Trp and derivatives, were evaluated for the protection of Trp oxidation in proteins using cyclic voltammetry (CV) and rank ordered based on their oxidation potentials (Table 2). Specifically, the candidate antioxidants were dissolved in deionized water and then added to a 0.2 M lithium perchlorate electrolyte solution. […] Solutions were scanned from −0.10 V to +1.50 V at a scan rate of either 100 or 500 mV/sec. The analytical cell was purged for four minutes with nitrogen before scanning of each antioxidant solution. The input was a linear scan of the potential of a working electrode, and the output was measurement of the resulting current. […] Redox reactions were characterized by sharp increases or decreases in current (peaks). The potential at which an oxidation reaction occurred was referred to as the anodic peak potential (or oxidation potential), and the potential at which a reduction occurred was referred to as is the cathodic peak (or reduction) potential.

[3] = test system: mAb1; assay: mAb1 light stress, eight hours, with L-Trp and L-Met; Fab/Fc oxidation by papain digest RP-HPLC; format: physicochemical, human; details: 5 mg/mL mAb1, 8 h light at 250 W/m^2, L-Trp at 1 mM
Protocol: L-tryptophan (L-Trp), an antioxidant used in protein formulations, has been recently shown to be photosensitive (Igarashi et al., Anal Sci 23(8):943-8 (2007)) and to have the ability to produce H2O2 upon light exposure. […] Control vials were wrapped in aluminum foil and treated similarly. After light exposure, solutions were prepared for analysis by reverse-phase HPLC. […] Following incubation, 900 μL of the solution was combined with 100 μL of 1 M dithiothreitol (DTT) and incubated for another thirty minutes at 37° C. Samples were then run on an Agilent, Inc. 1100/1200 HPLC system (Santa Clara, Calif.) equipped with UV detection at 280 nm in conjunction with a Varian, Inc. Pursuit 3 μm, 2 mm ID×250 mm diphenyl column (Palo Alto, Calif.). Mobile Phase A was 0.1% TFA in water. Mobile Phase B was 0.1% TFA in acetonitrile. The mobile phase gradient increased linearly from 34% B at 0 minutes to 43% B at 50.0 minutes, then to 95% B at 50.1 minutes. The gradient remained at 95% B until 60.1 minutes, and then decreased linearly from 95% B to 34% B between 60.1 and 60.2 minutes. The gradient remained at 34% B until the end of the cycle at 80.2 minutes. The column temperature was 65° C., total flow rate was 0.2 mL/min, and injection volume of each sample was 6 μL. Chromatograms were then integrated for quantification of oxidation.

[4] = H2O2 generation by free L-Trp upon light exposure for 3 hours (Amplex assay); format: physicochemical
Protocol: It was previously reported that L-Trp produced H2O2 via superoxide ion and in a sub-stoichiometric fashion while antibodies under similar conditions were producing catalytic amounts (Wentworth et al., Science 293(5536):1806-11 (2001); McCormick et al., Journal of the American Chemical Society 100:312-313 (1978)). To test the susceptibility of free L-Trp under pharmaceutically relevant conditions, such as under both ICH and ambient light conditions, formulations comprising 0.32 mM to 7.5 mM of L-Trp were exposed for 3 hours at 250 W/m^2 UV light and about 150 k lux visible light. Samples were taken and analyzed immediately via the Amplex assay to detect the amount of H2O2 generated under these conditions. […] When L-Trp was incubated with a combination of 50 mM NaN3 and 150 U superoxide dismutase (SOD) or SOD alone, significant amounts of H2O2 were still detected in the samples not containing NaN3.

[5] = test system: mAb1; assay: mAb1 Fenton stress study (H2O2 + Fe); Fab/Fc oxidation by RP-HPLC; format: physicochemical, human; details: 1 mM, 10 ppm H2O2, 0.2 mM Fe(III), 40° C. for 3 hours
Protocol: Antioxidants were added at a final concentration of 1 mM. […] After incubation, each reaction was quenched by addition of 100 mM L-Met and then prepared for analysis by reverse-phase HPLC as described above.
The Fenton reaction, using a mixture of H2O2 and Fe ions, generates oxidation through a metal catalyzed, hydroxyl radical reaction (Prousek et al., Pure and Applied Chemistry 79(12):2325-2338 (2007)). This reaction generated Fab, i.e. tryptophan, oxidation in mAb1. The reaction was also carried out in the presence of select antioxidants that were useful against both AAPH and light induced oxidation as reported above. Data related to the antioxidant properties against Fenton mediated reaction were analyzed using the RP-HPLC assay as described above. The Fenton reaction used 10 ppm of H2O2 and 0.2 mM of Fe(III). The reaction was incubated at 40° C. for 3 hours, quenched with 100 mM L-Met and analyzed using RP-HPLC after papain digest. All samples were the average of three separate vials, and mAb1 control (Ref Mat) was one vial with five independent injections on the HPLC. […] In regards to protection against Fc oxidation, the tested excipients (other than salicylic acid) performed slightly better than L-Trp.

N[C@@H](Cc1c[nH]c2ccccc12)C(=O)O [L-Trp, L-Tryptophan]
(H2O2 produced by Compound)/(H2O2 produced by L-Trp) ([1]; 1 mM in 20 mM histidine acetate pH 5.5, four hours of light at 250 W/m^2): 1 | H2O2 production upon light exposure compared to L-Trp (in words) ([1]; 1 mM, 20 mM L-His-acetate pH 5.5, 4 h light, 0.22 million lux hours): produced more H2O2 | Oxidation Potential (anodic peak) [2]: 0.938 V vs Ag/AgCl | Fc oxidation of mAb1 [3]: over 20% | Fab oxidation of mAb1 ([3]; label mAb1 = No Excipient): ~9% | H2O2 generated by free L-Trp upon light exposure ([4]; 0.32 mM to 7.5 mM L-Trp, 3 hours at 250 W/m^2 UV light and about 150 k lux visible light): large quantity of H2O2 | H2O2 generation by L-Trp in the presence of sodium azide ([4]; 50 mM sodium azide, 3 hours light): reduced greatly | Protection of Fab oxidation with respect to the no excipient case [5]: about 25%
